How the values were obtained:
US28 [1] = target: T1, US28 (Human cytomegalovirus, UniProt P69332); assay: inhibition of 125I-fractalkine binding to US28 expressing cells; set-up: a mouse cell line stably expressing transfected US28 cDNA under the control of a CMV promoter; expressed in transfected cells; species or system human cytomegalovirus (CMV)
Description: The US28 expressing cells used in most assays consist of a mouse cell line stably expressing transfected US28 cDNA under the control of a CMV promoter. These cells were cultured in IMDM-5% FBS, and harvested when the concentration was between 0.5-1.0×10^6 cells/mL. Some assays were performed with adherent human 293 cells (US28-293 cells) or membranes. The cells were centrifuged and resuspended in assay buffer (20 mM HEPES, 140 mM NaCl, 1 mM CaCl2, 5 mM MgCl2, and with 0.2% bovine serum albumin) to a concentration of 5.6×10^6 cells/mL. Using the Multi-Probe automated system, set up with 8 assay plates at a time, first 0.09 mL of cells was added to the assay plates containing the compounds. The final concentration of the compounds was 5 μg/mL each (1 μg/mL Comgenex). Then 0.09 mL of ^125I-fractalkine diluted in assay buffer (final concentration ˜[…], with ˜30,000 cpm per well) was added, the plates sealed and incubated for approximately 3 hours at 4 degrees C. on a shaker platform. The assay plates were harvested using Packard filter plates, pre-soaked in PEI solution, on the vacuum harvest apparatus. Scintillation fluid (35 μL) was added to all wells, the plates were sealed and counted in a Top Count scintillation counter. […]
S-(−)-IBZM (from the RBI division of Sigma Chemical Co., St. Louis, Mo., USA, Catalog No. I-139) was evaluated in the assays described in Examples 1 and 2. […]

US28 [2] = target: T1, US28; assay: cytoplasmic calcium mobilization in US28-293 cells; assay type: cell-based, human cytomegalovirus (CMV); set-up: expressed in transfected cells; host or cells: human 293 cells (US28-293 cells); conditions: compound added before fractalkine (FIG. 2)
Description: For each test, 1×10^6 cells were incubated at 37° C. in the cuvette of a PTI spectrometer, and the ratio of 410/490 nm emission plotted over time (typically 2-3 minutes), with compounds added at 5 seconds, followed by fractalkine at 60 seconds. […] Compounds which inhibited fractalkine binding were tested in this assay for the effects on Ca^2+ in this system.
S-(−)-IBZM (from the RBI division of Sigma Chemical Co., St. Louis, Mo., USA, Catalog No. I-139) was evaluated in the assays described in Examples 1 and 2. The IC50 value was 0.6 μM.

chemokine receptors = assay: binding specificity among chemokine receptors tested; conditions: all chemokine receptors tested
US28 [3] = target: T1, US28; assay: reversibility of binding to US28, competition assay with fractalkine; set-up: a mouse cell line stably expressing transfected US28 cDNA under the control of a CMV promoter; expressed in transfected cells; species or system human cytomegalovirus (CMV); conditions: pre-incubated with US28 expressing cells at 0-10 μg/mL, removed by competition with fractalkine (FIG. 3)
Description: FIG. 3 illustrates the reversibility of IBZM binding to US28. In this figure, IBZM is pre-incubated with US28 expressing cells (at concentrations of 0-10 μg/mL) and removed by competition with fractalkine.
In this assay, IBZM is pre-incubated with US28 expressing cells (at concentrations of 0-10 μg/mL) and removed by competition with fractalkine (see FIG. 3).

T1 sequence (P69332 whole entry): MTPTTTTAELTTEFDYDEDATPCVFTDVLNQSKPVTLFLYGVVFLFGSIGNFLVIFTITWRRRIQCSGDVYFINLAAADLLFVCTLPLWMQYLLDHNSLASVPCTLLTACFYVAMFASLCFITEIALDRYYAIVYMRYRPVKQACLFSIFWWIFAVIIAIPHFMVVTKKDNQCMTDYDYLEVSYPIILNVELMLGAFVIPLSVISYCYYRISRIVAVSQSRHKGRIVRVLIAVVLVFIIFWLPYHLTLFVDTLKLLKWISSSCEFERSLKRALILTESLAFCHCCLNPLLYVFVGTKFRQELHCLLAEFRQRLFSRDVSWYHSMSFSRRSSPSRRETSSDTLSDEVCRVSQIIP

## CCN1CCC[C@H]1CNC(=O)c1c(OC)ccc(I)c1O [IBZM, S(−)-3-Iodo-2-hydroxy-6-methoxy-N[(1-ethyl-2-pyrrolidinyl)methyl]benzamide]
US28 [1]
  IC50: 600 nM
US28 [2]
  mode of action in calcium mobilization: competitive agonist
Chemokine receptors
  specificity of binding among chemokine receptors: bind specifically to US28
US28 [3]
  reversibility of binding to US28: reversible
